Experiment [1] deals with Abca4−/−Rdh8−/− mice. The experiment is described as follows: Bright light-induced retinal degeneration in Abca4−/−Rdh8−/− mice, retinal histology and immunohistochemistry. The format is in vivo, mouse. The settings on record: pretreatment before light 10,000 lux 30 min; 7-10 days after light exposure. As for the experimental part:
Retinal histology and immunohistochemistry (IHC) was performed as previously described. Briefly, eye cups free of cornea, lens and vitreous body were fixed in 2% glutaraldehyde/4% paraformaldehyde and processed for Epon embedding. Sections 1 am thick were cut and stained with toluidine blue for histological examination under a light microscope. IHC analysis was performed on 12 am thick cryosections prepared from 4% paraformaldehyde-fixed eye cups. Collected cryosections were subjected to examination for rhodopsin, PNA and DAPI expression.
Retinal immunohistochemistry (IHC) was carried out as previously described. Briefly, eyes were enucleated and eye cups were made to eliminate cornea, lens and vitreous body and fixed in 4% paraformaldehyde and processed for cryosectioning. 12 am thick cryosections were collected cryosections and subjected to examination for rhodopsin, peanut agglutinin lectin (PNA) and DAPI expression.
Retinal immunohistochemistry (IHC) was performed as previously described. Briefly, eyes were enucleated and, after removal of the cornea, lens and vitreous body, eye cups were fixed in 4% paraformaldehyde and processed for cryosectioning. Twelve μm thick cryosections were cut, collected and examined for rhodopsin expression, peanut agglutinin lectin (PNA) for cone sheath and nuclear DAPI staining. […]

Experiment [2] deals with Abca4−/−Rdh8−/− mice. Nature of the experiment: Bright light-induced retinal degeneration in Abca4−/−Rdh8−/− mice, SLO autofluorescence imaging. The format is in vivo, mouse. Conditions: pretreatment before light 10,000 lux 30 min; SLO 8-9 days after light exposure. As for the experimental part: SLO (Heidelberg Engineering, Heidelberg, Germany) was carried out for whole fundus imaging of mouse retinas. Mice were anesthetized by intraperitoneal injection of anesthetic cocktail indicated above, which was followed by pupil dilation using 1% tropicamide prior to SLO imaging under autofluorescence mode.
SLO (Heidelberg Engineering) was carried out for in vivo whole fundus imaging of mouse retinas. […] Numbers of autofluorescent spots were counted and subjected to statistical analyses as described below.
SLO (Heidelberg Engineering) was carried out for whole fundus imaging of mouse retinas in vivo. Mice were anesthetized, and their pupils were dilated as described above. SLO images were then acquired in the autofluorescence mode.

In the next experiment the test system is BALB/c mice. Nature of the experiment: Light-induced retinal degeneration in BALB/c mice, retinal morphology (OCT, histology, IHC). It is filed as in vivo, mouse. The settings on record: for retinal morphology / ONL (OCT, histology): ip pretreatment 30 min before 10,000 lux, 7 days after light.
Experiment [3] deals with T1, α1A-adrenergic receptor (ADRA1A) (Homo sapiens, UniProt P35348).
T1 construct: host or cells: HEK293T/17
T1 sequence (P35348 1-466): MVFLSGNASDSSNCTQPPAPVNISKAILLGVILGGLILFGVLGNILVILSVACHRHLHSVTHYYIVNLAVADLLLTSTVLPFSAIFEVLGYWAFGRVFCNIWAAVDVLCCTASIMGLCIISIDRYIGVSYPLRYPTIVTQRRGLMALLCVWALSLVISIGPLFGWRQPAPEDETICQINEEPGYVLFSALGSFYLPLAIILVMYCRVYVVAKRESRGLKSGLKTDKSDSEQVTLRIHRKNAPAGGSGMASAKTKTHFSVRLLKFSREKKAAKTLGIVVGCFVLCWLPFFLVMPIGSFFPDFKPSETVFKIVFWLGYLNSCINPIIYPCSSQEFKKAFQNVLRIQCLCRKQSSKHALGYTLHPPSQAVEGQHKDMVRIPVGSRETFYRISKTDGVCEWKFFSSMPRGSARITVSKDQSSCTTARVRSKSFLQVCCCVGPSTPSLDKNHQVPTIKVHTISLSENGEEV
The experiment is described as follows: BRET assay for G protein activation in live cells, ADRA1A-Gq. The format is cell-based. The settings on record: for antagonistic activity on ADRA1A (inhibition of BRET signal): preincubation with ligand, then 1 μM noradrenaline. From the text: (§1) FIGS. 35(A-C) illustrate characterizing the activity of BRM, MTP, DOX, and TAM on dopamine and adrenaline receptors (A) Schematic representation of the BRET assay used to evaluate actions of drugs on selected GPCRs. […] The free Venus-Gβγ then interacts with the Gβγ-effector mimetic masGRK3ct-Nluc to produce the BRET signal. GDP, guanosine diphosphate; GRK, G protein-coupled receptor kinase; Nluc, nanoluciferase. (B) Left: Representative BRET signal traces recorded upon activation of D4R with indicated drugs in cells expressing Gαo and Venus-Gβγ, illustrating the agonism assay. Right: Representative traces of D2R responses to 1 μM dopamine in the absence (control) or presence of indicated drugs, illustrating antagonism assay. Note that, in the antagonism assay shown, the black trace overlaps with the red trace and therefore is not visible. (C) Top: Quantification of agonistic activity of ligands on D2R, D4R, D1R, and ADRA1A. D2R-GO, D4R-GO, D1R-Gs, and ADRA1A-Gq signaling were reconstituted in HEK293T/17 cells by transient transfection separately. Maximum amplitudes induced by dopamine (DA; 100 μM), noradrenaline (NA; 100 μM), BRM (25 μM), MTP (100 μM), DOX (50 μM), and TAM (100 μM) were plotted as bar graphs. […] The activity is plotted as percent inhibition. Data are means±SD. Results are representative of two independent experiments each performed with 12 replicates.
Dopamine D1, dopamine D4, and α1A-adrenergic receptors were purchased from cDNA Resource Center (Bloomsburg University, Bloomsburg, Pa.). Plasmid encoding the Flag-tagged, long isoform of the D2 dopamine receptor was a gift from A. Kovoor (University of Rhode Island). pCMV5 plasmids encoding GαoA were gifts from H. Itoh (Nara Institute of Science and Technology, Japan). Plasmids encoding Venus 156-239-Gβ1 and Venus 1-155-Gγ2 were gifts from N. Lambert (Georgia Regents University). Plasmids encoding RGS9-2, Gβ5S, R7BP, and masGRK3ct-Nluc were previously described.
(§2) BRET experiments were performed as previously reported with slight modifications. […] BRET measurements were performed using a microplate reader (POLARstar Omega, BMG Labtech) equipped with two emission photomultiplier tubes. […] The BRET signal is determined by calculating the ratio of the light emitted by Gβ1γ2-Venus (535 nm) over the light emitted by masGRK3ct-Nluc (475 nm). The average baseline value recorded before agonist stimulation was subtracted from BRET signal values, and the resulting difference (ABRET ratio) was obtained.
(§3) We used a real-time kinetic assay in which G protein activation by GPCRs is quantified by monitoring changes in the bioluminescence resonance energy transfer (BRET) signal between Venus-tagged Gβγ and its luciferase-tagged reporter in living cells (FIG. 35A). […]

Experiment [4] deals with T2, D2 dopamine receptor (D2R) (Homo sapiens, UniProt P14416).
T2 construct: Flag; host or cells: HEK293T/17
T2 sequence (P14416 whole entry): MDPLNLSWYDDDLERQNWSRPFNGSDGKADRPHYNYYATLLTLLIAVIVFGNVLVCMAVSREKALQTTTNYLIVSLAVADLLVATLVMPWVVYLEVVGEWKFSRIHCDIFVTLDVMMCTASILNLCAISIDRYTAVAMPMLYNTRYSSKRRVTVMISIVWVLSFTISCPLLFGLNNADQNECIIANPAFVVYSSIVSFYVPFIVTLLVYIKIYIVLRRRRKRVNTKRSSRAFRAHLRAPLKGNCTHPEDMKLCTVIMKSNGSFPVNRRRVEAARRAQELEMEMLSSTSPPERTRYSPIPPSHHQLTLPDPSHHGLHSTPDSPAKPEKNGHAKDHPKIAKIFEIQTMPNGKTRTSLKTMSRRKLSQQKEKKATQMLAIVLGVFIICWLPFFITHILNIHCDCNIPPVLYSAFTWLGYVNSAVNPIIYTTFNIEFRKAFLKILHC
Nature of the experiment: BRET assay for G protein activation in live cells, D2R-Go. The format is cell-based. Conditions: for antagonistic activity on D2R (inhibition of BRET signal): preincubation with ligand, then 1 μM dopamine.
Text: as §1, with “Results are representative of two independent experiments each performed with 12 replicates.” left out
as §2, §3

[5] abbreviates: HEK293T/17 cells, BRM 25 μM, MTP 100 μM, DOX 50 μM, TAM 100 μM.

Counter-ions that a name gives are not always drawn.

Regarding `COc1cc2nc(N3CCN(C(=O)C4COc5ccccc5O4)CC3)nc(N)c2cc1OC.CS(=O)(=O)O` (stereo not shown) [Doxazosin], the “retinal histology / immunohistochemistry (rhodopsin, PNA, DAPI; ONL)” value (shortened to “retinal histology / immunohistochemistry”) with Abca4−/−Rdh8−/− mice [1] is on record as “substantially preserved photoreceptor morphology”. Besides, the “retinal autofluorescence spots by SLO imaging” value (from here on “retinal autofluorescence spots”) in the experiment with Abca4−/−Rdh8−/− mice [2] was “significantly protected retinas from developing light-induced damage”. Further, in the experiment on BALB/c mice, the “retinal morphology / ONL (OCT, histology)” value is on record as “retinal morphology of drug-treated mice was maintained”. Moreover, the “antagonistic activity on ADRA1A (inhibition of BRET signal)” value in experiment [3] is given as “full antagonist”.
For `COCCc1ccc(OCC(O)CNC(C)C)cc1` (stereo not shown) [MTP, metoprolol tartrate], the “retinal histology / immunohistochemistry” value with Abca4−/−Rdh8−/− mice [1] was “preservation of the ONL and photoreceptor cells”. Moreover, in the experiment on Abca4−/−Rdh8−/− mice [2], the “retinal autofluorescence spots” value is on record as “lacked these autofluorescent spots”. Further, the “PNA staining of cone photoreceptors” value in the experiment on BALB/c mice (BRM 2.5 mg/kg bw, MTP 10 mg/kg bw) is “nearly normal pattern of PNA staining”. Also, the “retinal morphology / ONL (OCT, histology)” value in the experiment with BALB/c mice is listed as “preserved the ONL”. Further, the “agonistic activity on D2R (BRET signal)” value in experiment [4] (setting [5]) was “no agonistic or antagonistic effects”. Further, the “antagonistic activity on D2R (inhibition of BRET signal)” value in experiment [4] is reported as “no agonistic or antagonistic effects”. In addition, the “agonistic activity on ADRA1A (BRET signal)” value in experiment [3] (setting [5]) was “no agonistic or antagonistic effects”. Further, the “antagonistic activity on ADRA1A (inhibition of BRET signal)” value in experiment [3] is listed as “no agonistic or antagonistic effects”.
As for `CCOc1ccccc1OCCN[C@H](C)Cc1ccc(OC)c(S(N)(=O)=O)c1.Cl` [Tamsulosin], in the experiment on Abca4−/−Rdh8−/− mice [1], the “retinal histology / immunohistochemistry” value was “substantially preserved photoreceptor morphology”. Also, the “retinal autofluorescence spots” value in the experiment on Abca4−/−Rdh8−/− mice [2] is given as “significantly protected retinas from developing light-induced damage”. The “antagonistic activity on D2R (inhibition of BRET signal)” value in experiment [4] was “antagonistic activity”. For the same compound, the “antagonistic activity on ADRA1A (inhibition of BRET signal)” value in experiment [3] is reported as “antagonistic activity”.
